Reference: patent US9328122B2, “7-substituted Hanfangichin B derivative, and preparation method and use thereof” (HANGZHOU BENSHENG PHARMACEUTICAL CO., LTD., priority 2012, dated 2016)
Values after ≈ are worked out from the molar mass of the structure shown.

Tests used:
[1] = tested on: RPMI 8226 (multiple myeloma) cells; experiment: MTT cell growth inhibition, multiple myeloma cells; format: cell-based, human; conditions: Homo sapiens, RPMI 8226, 72 h, MTT; for IC50: read-out: IC50; for IC90: read-out: IC90
Outline: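 RPMI 8226 myeloma cells, 6000 per well in RPMI-1640 with 10% FBS, were dosed with fangchinoline derivatives at several concentrations the day after seeding. Incubation ran 72 h at 37° C in 5% CO2, then viable cells were measured by MTT.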

[2] = tested on: Hep-2 (laryngeal carcinoma) cells; experiment: MTT cell growth inhibition, solid tumor cells; format: cell-based; conditions: Homo sapiens, Hep-2, 72 h, MTT; for IC50: read-out: IC50; for IC90: read-out: IC90
Outline: (§1)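 Cells, 6000 per well in DMEM high glucose with 10% FBS, grew 24 h at 37° C, 5% CO2, then were exposed to compounds at varying concentrations for 72 h. Viable cells were measured by MTT.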

[3] = tested on: Hela (human cervical cancer) cells; experiment: MTT cell growth inhibition, solid tumor cells; format: cell-based; conditions: Homo sapiens, Hela, 72 h, MTT; for IC50: read-out: IC50; for IC90: read-out: IC90
Outline: as §1

[4] = tested on: Becap-37 (human breast cancer) cells; experiment: MTT cell growth inhibition, solid tumor cells; format: cell-based; conditions: for IC50 / IC90: Homo sapiens, Becap-37, 72 h, MTT; for IC50: read-out: IC50; for IC90: read-out: IC90; for anti-Becap37 activity increase over fangchinoline: relative to fangchinoline, Table 2
Outline: as §1

[5] = tested on: A549 (human lung cancer) cells; experiment: MTT cell growth inhibition, solid tumor cells; format: cell-based; conditions: Homo sapiens, A549, 72 h, MTT; for IC50: read-out: IC50; for IC90: read-out: IC90
Outline: as §1

[6] = tested on: U87-MG (malignant glioma) cells; experiment: MTT cell growth inhibition, solid tumor cells; format: cell-based; conditions: Homo sapiens, U-87 MG, U87-MG, 72 h, MTT; for IC50: read-out: IC50; for IC90: read-out: IC90
Outline: as §1

[7] = tested on: MGC-803 (human gastric cancer) cells; experiment: MTT cell growth inhibition, solid tumor cells; format: cell-based; conditions: MGC-803, 72 h, MTT; for IC50: read-out: IC50; for IC90: read-out: IC90
Outline: as §1

[8] = tested on: MG-63 (osteosarcoma) cells; experiment: MTT cell growth inhibition, solid tumor cells; format: cell-based; conditions: Homo sapiens, MG-63, 72 h, MTT; for IC50: read-out: IC50; for IC90: read-out: IC90
Outline: as §1

[9] = tested on: Hep G2 (human liver cancer) cells; experiment: MTT cell growth inhibition, solid tumor cells; format: cell-based; conditions: for IC50 / IC90: Homo sapiens, HepG2, Hep G2, 72 h, MTT; for IC50: read-out: IC50; for IC90: read-out: IC90; for anti-Hep G2 activity increase over fangchinoline: relative to fangchinoline, Table 2
Outline: as §1

[10] = tested on: RKO (human colon adenocarcinoma) cells; experiment: MTT cell growth inhibition, solid tumor cells; format: cell-based; conditions: for IC50 / IC90: Homo sapiens, RKO, 72 h, MTT; for IC50: read-out: IC50; for IC90: read-out: IC90
Outline: as §1

tumor = experiment: Antitumor activity compared with fangchinoline, overall statement; format: cell-based; conditions: tumor type not specified
[11] = tested on: Kasumi-1 (acute myeloid leukemia M2 type) cells; experiment: MTT cell growth inhibition, leukemia cells; format: cell-based, human; conditions: Homo sapiens, Kasumi-1, 72 h, MTT; for IC50: read-out: IC50; for IC90: read-out: IC90
Outline: (§2)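 Leukemia cells (6000 per well) in RPMI-1640 with 10% FBS were exposed to 7-substituted fangchinoline derivatives at varying concentrations the day after seeding. After 72 h at 37° C., 5% CO2, viable cell concentration was measured by MTT.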

[12] = tested on: H9 (acute lymphoblastic leukemia) cells; experiment: MTT cell growth inhibition, leukemia cells; format: cell-based, human; conditions: Homo sapiens, H9, 72 h, MTT; for IC50: read-out: IC50; for IC90: read-out: IC90
Outline: as §2

[13] = tested on: Jurkat (acute lymphoblastic leukemia) cells; experiment: MTT cell growth inhibition, leukemia cells; format: cell-based, human; conditions: Homo sapiens, Jurkat, 72 h, MTT; for IC50: read-out: IC50; for IC90: read-out: IC90
Outline: as §2

[14] = tested on: PC-3 (prostate cancer) cells; experiment: MTT cell growth inhibition, solid tumor cells; format: cell-based, human; conditions: for IC50 / IC90: Homo sapiens, PC-3, 72 h, MTT; for IC50: read-out: IC50; for IC90: read-out: IC90
Outline: as §1

[15] = tested on: SK-OV-3 (ovarian cancer) cells; experiment: MTT cell growth inhibition, solid tumor cells; format: cell-based, human; conditions: for IC50 / IC90: Homo sapiens, SK-OV-3, 72 h, MTT; for IC50: read-out: IC50; for IC90: read-out: IC90
Outline: as §1

[16] = tested on: CNE (nasopharyngeal carcinoma) cells; experiment: MTT cell growth inhibition, solid tumor cells; format: cell-based, human; conditions: for IC50 / IC90: Homo sapiens, CNE, 72 h, MTT; for IC50: read-out: IC50; for IC90: read-out: IC90
Outline: as §1

[17] = tested on: PANC-1 (pancreatic cancer) cells; experiment: MTT cell growth inhibition, solid tumor cells; format: cell-based, human; conditions: for IC50 / IC90: Homo sapiens, PANC-1, 72 h, MTT; for IC50: read-out: IC50; for IC90: read-out: IC90; for anti-PANC-1 activity increase over fangchinoline: relative to fangchinoline, Table 2
Outline: as §1

[18] = relative to fangchinoline, Table 2

## COc1ccc2cc1Oc1ccc(cc1)C[C@H]1c3cc(c(OC)cc3CCN1C)Oc1c(OCC(O)CN3CCCC(C)C3)c(OC)cc3c1[C@H](C2)N(C)CC3 (some centres unmarked) [BS-FC-410]
[1]
  IC50: < 0.125 µg/mL
  IC90: 0.25 µg/mL (≈ 0.327 µM)
[2]
  IC50: 2.25 µg/mL (≈ 2.95 µM)
  IC90: 8 µg/mL (≈ 10.5 µM)
[3]
  IC50: 1.33 µg/mL (≈ 1.74 µM)
  IC90: 2.41 µg/mL (≈ 3.15 µM)
[4]
  IC50: 0.73 µg/mL (≈ 0.956 µM)
  IC90: 2.48 µg/mL (≈ 3.25 µM)
  anti-Becap37 activity increase over fangchinoline: ~3 fold
[5]
  IC50: 1.71 µg/mL (≈ 2.24 µM)
  IC90: 6.8 µg/mL (≈ 8.9 µM)
[6]
  IC50: 0.67 µg/mL (≈ 0.877 µM)
  IC90: 1.19 µg/mL (≈ 1.56 µM)
[7]
  IC50: 0.49 µg/mL (≈ 0.641 µM)
  IC90: 3.21 µg/mL (≈ 4.2 µM)
[8]
  IC50: 1.1 µg/mL (≈ 1.44 µM)
  IC90: 1.7 µg/mL (≈ 2.23 µM)
[9]
  IC50: 0.66 µg/mL (≈ 0.864 µM)
  IC90: 1.51 µg/mL (≈ 1.98 µM)
  anti-Hep G2 activity increase over fangchinoline: ~3 fold
[10]
  IC50: 0.44 µg/mL (≈ 0.576 µM)
  IC90: 0.95 µg/mL (≈ 1.24 µM)
tumor
  antitumor activity compared with that of fangchinoline: significantly superior
[11]
  IC50: 0.84 µg/mL (≈ 1.1 µM)
  IC90: 1.86 µg/mL (≈ 2.43 µM)
[12]
  IC50: 1.13 µg/mL (≈ 1.48 µM)
  IC90: 2 µg/mL (≈ 2.62 µM)
[13]
  IC50: 0.64 µg/mL (≈ 0.838 µM)
  IC90: 1.61 µg/mL (≈ 2.11 µM)
[14]
  IC50: 2.85 µg/mL (≈ 3.73 µM)
  IC90: 3.89 µg/mL (≈ 5.09 µM)
[15]
  IC50: 1.39 µg/mL (≈ 1.82 µM)
  IC90: 5.59 µg/mL (≈ 7.32 µM)
[16]
  IC50: 1.1 µg/mL (≈ 1.44 µM)
  IC90: 2.4 µg/mL (≈ 3.14 µM)
[17]
  IC50: 1.11 µg/mL (≈ 1.45 µM)
  IC90: 3.77 µg/mL (≈ 4.93 µM)
  anti-PANC-1 activity increase over fangchinoline: ~3 fold

## COc1ccc2cc1Oc1ccc(cc1)C[C@H]1c3cc(c(OC)cc3CCN1C)Oc1c(OCC(O)CN3CCCCC3)c(OC)cc3c1[C@H](C2)N(C)CC3 (some centres unmarked) [BS-FC-403]
[1]
  IC50: < 0.125 µg/mL
  IC90: 0.13 µg/mL (≈ 0.173 µM)
[2]
  IC50: 1.76 µg/mL (≈ 2.35 µM)
  IC90: 5.66 µg/mL (≈ 7.55 µM)
[3]
  IC50: 0.9 µg/mL (≈ 1.2 µM)
  IC90: 2.96 µg/mL (≈ 3.95 µM)
[4]
  IC50: 0.59 µg/mL (≈ 0.787 µM)
  IC90: 2.09 µg/mL (≈ 2.79 µM)
  anti-Becap37 activity increase over fangchinoline: ~3 fold
[5]
  IC50: 1.84 µg/mL (≈ 2.45 µM)
  IC90: 6.34 µg/mL (≈ 8.45 µM)
[6]
  IC50: 0.71 µg/mL (≈ 0.947 µM)
  IC90: 1.73 µg/mL (≈ 2.31 µM)
[7]
  IC50: 0.4 µg/mL (≈ 0.533 µM)
  IC90: 4.14 µg/mL (≈ 5.52 µM)
[8]
  IC50: 0.6 µg/mL (≈ 0.8 µM)
  IC90: 1.3 µg/mL (≈ 1.73 µM)
[9]
  IC50: 0.55 µg/mL (≈ 0.733 µM)
  IC90: 2.23 µg/mL (≈ 2.97 µM)
  anti-Hep G2 activity increase over fangchinoline: ~3 fold
[10]
  IC50: 0.34 µg/mL (≈ 0.453 µM)
  IC90: 0.79 µg/mL (≈ 1.05 µM)
[10]; [18]
  anti-RKO activity increase over fangchinoline: ~3 fold
tumor
  antitumor activity compared with that of fangchinoline: significantly superior
[11]
  IC50: 0.88 µg/mL (≈ 1.17 µM)
  IC90: 2 µg/mL (≈ 2.67 µM)
[12]
  IC50: 0.88 µg/mL (≈ 1.17 µM)
  IC90: 1.9 µg/mL (≈ 2.53 µM)
[13]
  IC50: 0.58 µg/mL (≈ 0.773 µM)
  IC90: 0.96 µg/mL (≈ 1.28 µM)
[14]
  IC50: 1.49 µg/mL (≈ 1.99 µM)
  IC90: 3.96 µg/mL (≈ 5.28 µM)
[14]; [18]
  anti-PC-3 activity increase over fangchinoline: ~3 fold
[15]
  IC50: 1.03 µg/mL (≈ 1.37 µM)
  IC90: 3.85 µg/mL (≈ 5.13 µM)
[15]; [18]
  anti-SK-OV-3 activity increase over fangchinoline: ~3 fold
[16]
  IC50: 0.87 µg/mL (≈ 1.16 µM)
  IC90: 2.2 µg/mL (≈ 2.93 µM)
[16]; [18]
  anti-CNE activity increase over fangchinoline: ~3 fold
[17]
  IC50: 1.03 µg/mL (≈ 1.37 µM)
  IC90: 3.17 µg/mL (≈ 4.23 µM)
  anti-PANC-1 activity increase over fangchinoline: ~3 fold
